Measured values taken from patent US20250049970A1, “DLL3 TARGETING PEPTIDES AND CONSTRUCTS THEREOF” (MARIANA ONCOLOGY INC., priority 2023, published 2025).
Where a SMILES comes first, the peptide text is derived from it. Bridges are numbered along the chain shown (N, C = ends). [ ]: non-standard residue; d: D form.

target: T1, DLL3 (Homo sapiens, UniProt Q9NYJ7); test: SPR KD, biotinylated human DLL3 on streptavidin chip (Table 8); set-up: biotin (biotinylated); settings: biotinylated human DLL3 on streptavidin sensor chip, 25° C., 1:1 binding model; read-out: SPR KD
T1 sequence (Q9NYJ7 27-618): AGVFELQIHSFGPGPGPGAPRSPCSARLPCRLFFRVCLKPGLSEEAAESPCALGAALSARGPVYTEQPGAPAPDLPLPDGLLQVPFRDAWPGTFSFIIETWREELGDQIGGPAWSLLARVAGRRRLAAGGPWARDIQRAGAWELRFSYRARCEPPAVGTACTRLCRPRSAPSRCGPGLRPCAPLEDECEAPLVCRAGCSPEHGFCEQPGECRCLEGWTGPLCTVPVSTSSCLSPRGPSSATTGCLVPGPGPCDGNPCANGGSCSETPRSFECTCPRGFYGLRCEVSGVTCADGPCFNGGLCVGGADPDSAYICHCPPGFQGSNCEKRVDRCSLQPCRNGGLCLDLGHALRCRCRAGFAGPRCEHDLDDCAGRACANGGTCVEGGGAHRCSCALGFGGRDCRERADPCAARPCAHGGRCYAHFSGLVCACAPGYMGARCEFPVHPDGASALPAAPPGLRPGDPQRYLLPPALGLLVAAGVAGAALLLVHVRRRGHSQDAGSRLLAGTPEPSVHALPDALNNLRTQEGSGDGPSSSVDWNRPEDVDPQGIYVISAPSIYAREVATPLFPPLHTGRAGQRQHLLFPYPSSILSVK
From the text: Biotinylated target ligand human DLL3 was immobilized on a streptavidin sensor chip. A reference surface was set up for nonspecific binding and refractive index changes. […] Sensorgram curves were fitted with 1:1 binding model, and affinity and kinetic parameters were obtained using Biacore Insight evaluation 4.0. software.

Row | Structure (SMILES) | Kd
1 | CC(=O)N[C@@H](Cc1c[nH]c2ccccc12)C(=O)N[C@H](C(=O)N[C@H](C(=O)N[C@H]1CSSC[C@@H](C(=O)N[C@@H](Cc2c[nH]c3ccccc23)C(=O)N2CCC[C@H]2C(N)=O)NC(=O)[C@H](CC(=O)O)NC(=O)[C@H](CCCCNC(=O)CN2CCN(CC(=O)O)CCN(CC(=O)O)CCN(CC(=O)O)CC2)NC(=O)[C@H](Cc2ccc3ccccc3c2)NC(=O)[C@H](CC(N)=O)NC(=O)[C@H](CN2CCOCC2)NC1=O)C(C)(C)C)[C@@H](C)O (single isomer, unassigned) [compound 304, Ac-W-T-(Tbg)-C(3)-[3-(1-morpholinyl)-Ala]-N-(2Nal)-Lys(DOTA)-D-C(3)-W-P-CONH2] | 1 to 10 nM
2 | CC(=O)N[C@@H](Cc1c[nH]c2ccccc12)C(=O)N[C@H](C(=O)N[C@@H](CC(C)(C)C)C(=O)N[C@H]1CSSC[C@@H](C(=O)N[C@@H](Cc2c[nH]c3ccccc23)C(=O)N2CCC[C@H]2C(N)=O)NC(=O)[C@H](CC(=O)O)NC(=O)[C@H](CCCCNC(=O)CN2CCN(CC(=O)O)CCN(CC(=O)O)CCN(CC(=O)O)CC2)NC(=O)[C@H](Cc2ccc3ccccc3c2)NC(=O)[C@H](CC(N)=O)NC(=O)C(CN2CCOCC2)NC1=O)[C@@H](C)O (single isomer, unassigned) [compound 305, Ac-W-T-(t-Bu-Ala)-C(3)-[3-(1-morpholinyl)-Ala]-N-(2Nal)-Lys(DOTA)-D-C(3)-W-P-CONH2] | < 1 nM
3 | CCC(C)(C)[C@H](NC(=O)[C@@H](NC(=O)[C@H](Cc1c[nH]c2ccccc12)NC(C)=O)[C@@H](C)O)C(=O)N[C@H]1CSSC[C@@H](C(=O)N[C@@H](Cc2c[nH]c3ccccc23)C(=O)N2CCC[C@H]2C(N)=O)NC(=O)[C@H](CC(=O)O)NC(=O)[C@H](CCCCNC(=O)CN2CCN(CC(=O)O)CCN(CC(=O)O)CCN(CC(=O)O)CC2)NC(=O)[C@H](Cc2ccc3ccccc3c2)NC(=O)[C@H](CC(N)=O)NC(=O)C(CN2CCOCC2)NC1=O (single isomer, unassigned) [compound 306, Ac-W-T-(α-tert-amylGly)-C(3)-[3-(1-morpholinyl)-Ala]-N-(2Nal)-Lys(DOTA)-D-C(3)-W-P-CONH2] | < 1 nM
4 | CC[C@@H](C)[C@H](NC(=O)[C@@H](NC(=O)[C@H](Cc1c[nH]c2ccccc12)NC(C)=O)[C@@H](C)O)C(=O)N[C@H]1CSSC[C@@H](C(=O)N[C@@H](Cc2c[nH]c3ccccc23)C(=O)N2CCC[C@H]2C(N)=O)NC(=O)[C@H](CC(=O)O)NC(=O)[C@H](CCCCNC(=O)CN2CCN(CC(=O)O)CCN(CC(=O)O)CCN(CC(=O)O)CC2)NC(=O)[C@H](Cc2ccc3ccccc3c2)NC(=O)[C@H](CC(N)=O)NC(=O)C(CN2CCOCC2)NC1=O (single isomer, unassigned) [compound 307, Ac-W-T-(Allo-Ile)-C(3)-[3-(1-morpholinyl)-Ala]-N-(2Nal)-Lys(DOTA)-D-C(3)-W-P-CONH2] | 1 to 10 nM
5 | CC(=O)N[C@@H](Cc1c[nH]c2ccccc12)C(=O)N[C@H](C(=O)N[C@@H](CC(C)(C)C)C(=O)N[C@H]1CSSC[C@@H](C(=O)N[C@@H](Cc2c[nH]c3ccccc23)C(=O)N2CCC[C@H]2C(N)=O)NC(=O)[C@H](CC(=O)O)NC(=O)[C@H](CCCCNC(=O)CN2CCN(CC(=O)O)CCN(CC(=O)O)CCN(CC(=O)O)CC2)NC(=O)[C@H](Cc2ccc3ccccc3c2)NC(=O)[C@H](CC(N)=O)NC(=O)C(CN2CCOCC2)NC1=O)[C@@H](C)O (single isomer, unassigned) [compound 310, Ac-W-T-(t-Bu-Ala)-C(3)-[3-(1-morpholinyl)-Ala]-N-(2Nal)-Lys(DOTA)-D-C(3)-W-P-CONH2] | < 1 nM
6 | CCC(C)(C)[C@H](NC(=O)[C@@H](NC(=O)[C@H](Cc1c[nH]c2ccccc12)NC(C)=O)[C@@H](C)O)C(=O)N[C@H]1CSSC[C@@H](C(=O)N[C@@H](Cc2c[nH]c3ccccc23)C(=O)N2CCC[C@H]2C(N)=O)NC(=O)[C@H](CC(=O)O)NC(=O)[C@H](CCCCNC(=O)CN2CCN(CC(=O)O)CCN(CC(=O)O)CCN(CC(=O)O)CC2)NC(=O)[C@H](Cc2ccc3ccccc3c2)NC(=O)[C@H](CC(N)=O)NC(=O)C(CN2CCOCC2)NC1=O (single isomer, unassigned) [compound 311, Ac-W-T-(α-tert-amylGly)-C(3)-[3-(1-morpholinyl)-Ala]-N-(2Nal)-Lys(DOTA)-D-C(3)-W-P-CONH2] | < 1 nM
7 | CC[C@@H](C)[C@H](NC(=O)[C@@H](NC(=O)[C@H](Cc1c[nH]c2ccccc12)NC(C)=O)[C@@H](C)O)C(=O)N[C@H]1CSSC[C@@H](C(=O)N[C@@H](Cc2c[nH]c3ccccc23)C(=O)N2CCC[C@H]2C(N)=O)NC(=O)[C@H](CC(=O)O)NC(=O)[C@H](CCCCNC(=O)CN2CCN(CC(=O)O)CCN(CC(=O)O)CCN(CC(=O)O)CC2)NC(=O)[C@H](Cc2ccc3ccccc3c2)NC(=O)[C@H](CC(N)=O)NC(=O)C(CN2CCOCC2)NC1=O (single isomer, unassigned) [compound 312, Ac-W-T-(Allo-Ile)-C(3)-[3-(1-morpholinyl)-Ala]-N-(2Nal)-Lys(DOTA)-D-C(3)-W-P-CONH2] | < 1 nM
8 | CC[C@H](C)[C@H](NC(=O)[C@@H](NC(=O)[C@H](Cc1c[nH]c2ccccc12)NC(=O)[C@H](CCSC)NC(C)=O)[C@@H](C)O)C(=O)N[C@H]1CSSC[C@@H](C(=O)N[C@@H](Cc2c[nH]c3ccccc23)C(=O)N2CCC[C@H]2C(N)=O)NC(=O)[C@H](CC(=O)O)NC(=O)[C@H](Cc2cnc[nH]2)NC(=O)[C@H](Cc2c[nH]c3ccccc23)NC(=O)[C@H](CC(N)=O)NC(=O)[C@H](CC(N)=O)NC1=O [compound 1] (Ac-MWTICNNWHDCWP-NH2; disulfide 5-11) | 1 to 10 nM
9 | CC[C@H](C)[C@H](NC(=O)[C@@H](NC(=O)[C@H](Cc1c[nH]c2ccccc12)NC(=O)[C@@H](C)NC(C)=O)[C@@H](C)O)C(=O)N[C@H]1CSSC[C@@H](C(=O)N[C@@H](Cc2c[nH]c3ccccc23)C(=O)N2CCC[C@H]2C(N)=O)NC(=O)[C@H](CC(=O)O)NC(=O)[C@H](Cc2cnc[nH]2)NC(=O)[C@H](Cc2c[nH]c3ccccc23)NC(=O)[C@H](CC(N)=O)NC(=O)[C@H](CC(N)=O)NC1=O [compound 2, Ac-(D-Ala)-W-T-I-C(3)-N-N-W-H-D-C(3)-W-P-CONH2] (Ac-[dA]WTICNNWHDCWP-NH2; disulfide 5-11) | 1 to 10 nM
10 | CC[C@H](C)[C@H](NC(=O)[C@@H](NC(=O)[C@H](Cc1c[nH]c2ccccc12)NC(=O)[C@H](CCSC)NC(C)=O)[C@@H](C)O)C(=O)N[C@H]1CSSC[C@@H](C(=O)N[C@@H](Cc2c[nH]c3ccccc23)C(=O)N2CCC[C@H]2C(N)=O)NC(=O)[C@H](CC(=O)O)NC(=O)[C@H](Cc2cnc[nH]2)NC(=O)[C@H](Cc2c[nH]c3ccccc23)NC(=O)[C@H](CC(N)=O)NC(=O)[C@@H](C)NC1=O [compound 7, Ac-M-W-T-I-C(3)-(D-Ala)-N-W-H-D-C(3)-W-P-CONH2] (Ac-MWTIC[dA]NWHDCWP-NH2; disulfide 5-11) | 10 to 100 nM
11 | CC[C@H](C)[C@H](NC(=O)[C@@H](NC(=O)[C@H](Cc1c[nH]c2ccccc12)NC(=O)[C@H](CCSC)NC(C)=O)[C@@H](C)O)C(=O)N[C@H]1CSSC[C@@H](C(=O)N[C@H](C)C(=O)N2CCC[C@H]2C(N)=O)NC(=O)[C@H](CC(=O)O)NC(=O)[C@H](Cc2cnc[nH]2)NC(=O)[C@H](Cc2c[nH]c3ccccc23)NC(=O)[C@H](CC(N)=O)NC(=O)[C@H](CC(N)=O)NC1=O [compound 9, Ac-M-W-T-I-C(3)-N-N-W-H-D-C(3)-(D-Ala)-P-CONH2] (Ac-MWTICNNWHDC[dA]P-NH2; disulfide 5-11) | 100 to 300 nM
12 | CC[C@H](C)[C@H](NC(=O)[C@@H](NC(=O)[C@H](Cc1c[nH]c2ccccc12)NC(=O)[C@H](CCSC)NC(C)=O)[C@@H](C)O)C(=O)N[C@H]1CSSC[C@@H](C(=O)N[C@@H](Cc2c[nH]c3ccccc23)C(=O)N[C@H](C)C(N)=O)NC(=O)[C@H](CC(=O)O)NC(=O)[C@H](Cc2cnc[nH]2)NC(=O)[C@H](Cc2c[nH]c3ccccc23)NC(=O)[C@H](CC(N)=O)NC(=O)[C@H](CC(N)=O)NC1=O [compound 10, Ac-M-W-T-I-C(3)-N-N-W-H-D-C(3)-W-(D-Ala)-CONH2] (Ac-MWTICNNWHDCW[dA]-NH2; disulfide 5-11) | 100 to 300 nM
13 | CC[C@H](C)[C@H](NC(=O)[C@@H](NC(=O)[C@H](Cc1c[nH]c2ccccc12)NC(=O)[C@H](C)NC(C)=O)[C@@H](C)O)C(=O)N[C@H]1CSSC[C@@H](C(=O)N[C@@H](Cc2c[nH]c3ccccc23)C(=O)N2CCC[C@H]2C(N)=O)NC(=O)[C@H](CC(=O)O)NC(=O)[C@H](Cc2cnc[nH]2)NC(=O)[C@H](Cc2c[nH]c3ccccc23)NC(=O)[C@H](CC(N)=O)NC(=O)[C@H](CC(N)=O)NC1=O [compound 11, Ac-(L-Ala)-W-T-I-C(3)-N-N-W-H-D-C(3)-W-P-CONH2] (Ac-AWTICNNWHDCWP-NH2; disulfide 5-11) | 1 to 10 nM
14 | CC[C@H](C)[C@H](NC(=O)[C@H](C)NC(=O)[C@H](Cc1c[nH]c2ccccc12)NC(=O)[C@H](CCSC)NC(C)=O)C(=O)N[C@H]1CSSC[C@@H](C(=O)N[C@@H](Cc2c[nH]c3ccccc23)C(=O)N2CCC[C@H]2C(N)=O)NC(=O)[C@H](CC(=O)O)NC(=O)[C@H](Cc2cnc[nH]2)NC(=O)[C@H](Cc2c[nH]c3ccccc23)NC(=O)[C@H](CC(N)=O)NC(=O)[C@H](CC(N)=O)NC1=O [compound 13, Ac-M-W-(L-Ala)-I-C(3)-N-N-W-H-D-C(3)-W-P-CONH2] (Ac-MWAICNNWHDCWP-NH2; disulfide 5-11) | 10 to 100 nM
